Source: PubChem BioAssay (NCI)
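Cells were grown in 96-well plates and exposed to each compound for 48 hours at five concentrations; endpoints were interpolated linearly between bracketing concentrations, or set to the highest concentration if not reached. TGI is the concentration that stops growth completely.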

What was measured:
Experiment in all cases: NCI tumour cell line growth inhibition, 48 h
XF 498 CNS = test system: XF 498 CNS
RXF-631 renal = test system: RXF-631 renal
HOP-18 NSCLC = test system: HOP-18 NSCLC
DU-145 prostate = test system: DU-145 prostate
MCF7 breast = test system: MCF7 breast
BT-549 breast = test system: BT-549 breast
MDA-N = test system: MDA-N
P388 leukemia = test system: P388 leukemia
SN12K1 renal = test system: SN12K1 renal
P388/ADR leukemia = test system: P388/ADR leukemia

| SMILES | TGI (XF 498 CNS) [µM] | TGI (RXF-631 renal) [µM] | TGI (HOP-18 NSCLC) [µM] | TGI (DU-145 prostate) [µM] | TGI (MCF7 breast) [µM] | TGI (BT-549 breast) [µM] | TGI (MDA-N) [µM] | TGI (P388 leukemia) [µM] | TGI (SN12K1 renal) [µM] | TGI (P388/ADR leukemia) [µM] |
| --- | --- | --- | --- | --- | --- | --- | --- | --- | --- | --- |
| CCCN(CCCC(NC(C)=O)C(=O)NCc1ccccc1)C(=O)NCCCl (stereo unspecified) | > 100 | > 100 | > 100 |  |  |  |  |  |  |  |
| CSc1n[n+]2c(s1)SCCC2 | > 100 | > 100 | > 100 |  |  |  |  |  |  |  |
| CC[N+]1(C)CCC(O)(c2ccc(OC)cc2)C(C(=O)c2ccc(OC)cc2)C1 (stereo unspecified) | 23.3 | 34.5 | 32.6 | 32.7 | 17.7 | 32.3 | 31.9 |  |  |  |
| Nc1ccn(C2OC(COC(=O)C34CC5CC(CC(C5)C3)C4)C(O)C2O)c(=O)n1 (stereo unspecified) |  |  | > 100 | > 100 | > 100 | > 100 | > 100 | > 100 | > 100 | > 100 |
| FC(F)(F)C1(Br)C(c2ccccc2)=C1c1ccccc1 | 30.7 | > 100 | 31.1 |  |  |  |  |  |  |  |
| Cc1cc(N(CCC#N)S(C)(=O)=O)ccc1C=Nc1ccc(C(=O)NN2C(=O)/C(=C/c3ccc(N(CCC#N)CCC#N)cc3C)N=C2c2cc([N+](=O)[O-])ccc2Cl)cc1 | > 100 | > 100 | > 100 |  |  |  |  |  |  |  |
| COC(C(=O)NCCCCNC(=O)C(OC)c1ccccc1)c1ccccc1 (stereo unspecified) | > 100 | > 100 | > 100 |  |  |  |  |  |  |  |
| CCc1cc(CCC(=O)Nc2c(C)cccc2C)[nH]n1 | > 100 | > 100 | > 100 |  |  |  |  |  |  |  |
| CN(C)c1nc(=Nc2cccc(Cl)c2)ss1 | 32.4 | 26.8 | > 100 |  |  |  |  |  |  |  |
